Experimental data taken from US20240398728A1, “STERILE TOPICAL SALINE PUTRESCINE FORMULATION AND USES THEREOF” (VIVIER CANADA INC., priority 2018, published 2024).

Assays:
[1] = Solubility of ingredients in water noted during manufacturing; assay type: physicochemical; conditions: noted by Applicant during manufacturing
Text: (§1) As such, a first heating step (to about 40 degrees Celsius) while stirring, together with the sequential addition of Allantoin followed by HPMC allowed to improve the manufacturing procedure. Propanediol was also shown to help solubilization of active ingredients in the mixture. […] Once applied on the skin, the alcohol rapidly evaporates and promotes adherence of the film forming agent (e.g., PVP) on the skin. The presence of alcohol also promotes evaporation of water. Finally, because the presence of sodium salt (saline) could interfere with active ingredients in the formulation, it is preferentially added at the end of the process.
as §1, with “the PVP (which forms a film)” for “the film forming agent (e.g., PVP)”, “also promoted” for “also promotes”, “it was” for “it is”, “process. […]” for “process.”

[2] = target: fibroblast tissue transglutaminase (Homo sapiens, UniProt P21980); conditions: in vitro and in vivo, topical, compared to controls; cited from earlier work
epidermis of eroded skin = conditions: topical; animals and human epidermis; cited from earlier work

fibroblast tissue transglutaminase, sequence (P21980 whole entry): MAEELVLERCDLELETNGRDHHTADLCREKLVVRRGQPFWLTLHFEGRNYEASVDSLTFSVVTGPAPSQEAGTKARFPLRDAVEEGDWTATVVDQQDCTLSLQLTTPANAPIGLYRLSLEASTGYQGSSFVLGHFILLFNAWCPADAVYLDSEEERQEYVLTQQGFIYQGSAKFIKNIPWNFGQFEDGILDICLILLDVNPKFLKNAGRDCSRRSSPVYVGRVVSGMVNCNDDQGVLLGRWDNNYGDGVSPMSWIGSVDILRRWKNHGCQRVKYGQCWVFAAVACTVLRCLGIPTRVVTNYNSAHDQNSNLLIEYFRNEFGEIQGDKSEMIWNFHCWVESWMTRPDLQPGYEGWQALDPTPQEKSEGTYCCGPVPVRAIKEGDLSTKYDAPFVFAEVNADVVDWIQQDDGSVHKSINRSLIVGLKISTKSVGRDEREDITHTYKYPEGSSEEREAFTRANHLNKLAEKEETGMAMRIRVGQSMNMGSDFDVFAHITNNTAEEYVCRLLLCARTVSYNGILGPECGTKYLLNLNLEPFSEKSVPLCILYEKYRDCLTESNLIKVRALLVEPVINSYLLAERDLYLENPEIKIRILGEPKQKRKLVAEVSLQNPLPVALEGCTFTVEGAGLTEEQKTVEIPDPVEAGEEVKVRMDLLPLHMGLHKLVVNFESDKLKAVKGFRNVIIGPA

Row | Compound | solubility in water [1] | collagen cross-linking [2] | effect on the epidermis of eroded skin (barrier function, thickness of the stratum lucidum) (epidermis of eroded skin)
1 | NC(=O)NC1NC(=O)NC1=O (stereo not shown) [Allantoin] | not very soluble in water | – | –
2 | NCCCCN [putrescine, 1,4-diaminobutane] | – | reduce collagen cross-linking in vitro and in vivo | increasing its barrier function as well as the thickness of the stratum lucidum
3 | Alpha Bisabolol | not to be very soluble in water | – | –
